Marks after values point to notes of the source that are not given here.
Columns and labels:
[1] = In vitro digestibility and gas production of alfalfa hay in mixed rumen fluid (Example 2); parameters: species or system cows; conditions: 180 day hay
Method: In vitro experiment was also conducted to assess the effect of microbial inoculants on gas production and kinetics from 180 day hay samples. Two runs by mixed rumen fluid from three cows fitted with ruminal cannulas and fed a standard feedlot backgrounding diet were conducted. Approximately 0.5 g of each composite sample of 180d hay per treatment was weighed into vial and incubated in triplicate in each run and gas were measured for 3, 6, 9, 12, 24 and 48 h. Vials were retrieved after incubation and processed according to LRC SOP to determine in vitro ruminal DM disappearance, gas production, ammonia and VFA.

moulds = assay: Microbial counts on alfalfa hay: mold (Example 2)
Description: (§1) The application rate of the combination of P. anomala in combination with the enzyme having a chitinase activity was respectively 10^11 CFU and 1.5 g in 1 L of water per ton of hay. Accordingly, the application rate of the combination of P. pentosaceus in combination with the enzyme having a chitinase activity 10^11 CFU and 1.5 g in 1 L of water per ton of hay. […] The negative control was water, and was applied at a rate of 1 L per ton of hay. Five large round bales of about 800 kg were made in accordance with Example 1 for each treatment on the same day. Core samples from bales across all treatments were collected at day 0, 90 and 180 after baling to analyze their nutritional value, fermentation product and microbial changes.
(§2) Core samples collected on day 0 and 90, 180 after baling were subjected to microbiological and chemical analysis. Microbiological analysis was conducted to enumerate, isolate and characterize the microorganisms (total bacteria, yeasts and moulds) on appropriate plates through serial dilution.

[2] = test system: total bacteria (non-fastidious bacteria growing on nutrient agar); assay: Enumeration of total bacteria on hay (Example 1)
Method: (§3) Two trial bales were made to determine time to complete application of the additive on one bale, weight of the bale as well as a more accurate measure of moisture content of the baled material. Bale moisture was determined using a hay probe. […] The application rate of P. anomala was 10^11 CFU in 1 L per ton of hay. The enzyme having a chitinase activity was applied at a rate of 1.5 g (suspended in 1 L of water) per ton of hay, corresponding to about 6 U per ton of hay. […] The negative control was water, and was applied at a rate of 1 L per ton of hay. […] Five replicate bales were made for each treatment. Samples of the P. anomala were taken after each application to verify the viability and numbers of the organism. […]
(§4) Chemical and microbiological analyses were conducted on hay samples collected from six different sections of the field and on composite core samples obtained from four different locations on each bale on day 1, 90, and 180 of storage. […] Dry matter (DM), organic matter (OM) and crude protein (CP) were determined according to AOAC (1990) procedures, and neutral detergent fibre (NDF), acid detergent fibre (ADF), and acid detergent insoluble nitrogen (ADIN) as described by Van Soest et al., (1991. Methods for dietary fiber, neutral detergent and non-starch polysaccharides in relation to animal nutrition. J. Dairy Sci. 74: 3583-3597.).

[3] = In situ ruminal digestion parameters of alfalfa hay (Example 2); assay type: in vivo, cows; conditions: hay 180 days after baling
Method: Core samples were collected on day 180 and evaluated for nutritional quality using in situ and in vitro methods.
In situ experiments were conducted to assess the effect of hay preservatives on the rate and extent of digestion of hay samples collected 180 days after baling. Three cows fitted with ruminal cannulas and fed a standard feedlot backgrounding diet were used. Approximately 4 g of each composite sample from each bale (replicate) per treatment was weighed into Dacron bags and incubated in triplicate in each cow for 0, 2, 6, 12, 24, 48, 72, 96, and 120 h. Bags were retrieved after incubation and processed according to LRC SOP to determine in situ ruminal DM and NDF disappearance.

molds = assay: Enumeration of molds on hay (Example 1)
Method: as §3, §4

total bacteria = assay: Microbial counts on alfalfa hay: total bacteria (Example 2)
Description: as §1, §2

[4] = In situ NDF disappearance of hay in the rumen (Example 1); assay type: in vivo, Jersey cows; conditions: fitted equation; day 180 hay
Method: (§5) In situ rate and extent of DM and NDF disappearance of the day 180 hay samples were determined in three cows fitted with ruminal cannulas and fed a standard feedlot backgrounding diet consisting of 50% timothy hay plus 50% barley silage (DM basis). Subsamples of the day 180 core samples obtained from bales treated with the same preservative were composited and ground to pass through a 4 mm screen. Approximately 4 g of each composite sample was weighed into Dacron bags and incubated in triplicate in each cow for 0, 2, 6, 12, 24, 48, 72, 96, and 120 h. Bags were made of monofilament polyester mesh (53 μm pore size, 5 cm×20 cm, Ankom, Fairport, New York). Cows were given two weeks to adapt to their diets before starting incubations. Immediately after incubation, bags were rinsed under cold tap water until all the rumen contents on the outside of the bags had been removed. Bags were washed in a domestic washing machine in cold water for three minutes using the delicate washing cycle without detergent and spin cycle. The washing procedure was repeated once. […] The residues from triplicate bags of the same treatment incubated in the same cow were pooled and ground to pass through a 1 mm screen before being analyzed for NDF as per the method stated above. Percentage disappearance of DM and NDF were calculated from the proportion remaining in the bags after each incubation time. […]

yeasts [5] = assay: Enumeration of yeasts on hay (Example 1)
Method: as §3, §4

[6] = Temperature stability of alfalfa hay bales (Example 2, FIG. 2, FIG. 3)
Description: as §1
Temperature of individual bales was monitored by continuously measuring the interior temperature throughout the storage period with three (3) Dallas Thermochron iButtons (Embedded Data Systems, Lawrenceburg, KY) inserted in the interior of each bale immediately after harvest (illustrated in pictures). The temperature was recorded at 4 hours intervals for 10 weeks.

[7] = In situ DM disappearance of hay in the rumen (Example 1); assay type: in vivo, Jersey cows; conditions: fitted equation, day 180 hay
Method: as §5

[8] = Quality evaluation of hay (color, odor, grade) after 180 days (Example 1); parameters: key to GRADE (overall evaluation by examiner): VP: very poor; P: poor; A: average; G: good; VG: very good
Description: All bales were opened on day 180 and their quality assessed based on the Maryland Cooperative Extension Fact Sheet #644.
Temperature stability of the bales was monitored by continuously measuring the interior temperature of each bale with three Dallas Thermochron iButtons (Embedded Data Systems, Lawrenceburg, KY) that were inserted in the core holes the following morning after baling. The iButtons were configured to record temperatures every hour during the first 60 days of the storage period. […] Bales were opened and visually scored for extent of spoilage and mold at the end of the storage period (180 d) based on the Maryland Cooperative Extension Fact Sheet #644 ‘Evaluating Hay Quality’ (http://www.extension.umd.edu/publications/pdfs/fs644. pdf).

[9] = test system: lactic acid producing bacteria (LAB); assay: Enumeration of lactic acid producing bacteria on hay (Example 1)
Method: as §3, §4

yeasts [10] = assay: Microbial counts on alfalfa hay: yeast (Example 2)
Description: as §1, §2

[11] = day 0, unit printed only at total bacteria (log cfu/g DM)
[12] = hay 90 days after treatment at baling
[13] = hay 180 day post treatment at baling
[14] = mean of bales, stored for 180 days

CCC(=O)O [BPA, Propionic Acid]
c = Fractional gas production rate fermentation rate [1]: 6.6^c mL h^−1 | lag = lag time [1]: 0.48^a h | MOLD count (moulds; [11]): 4.66 | MOLD count (moulds; day 90): 5.91 | TB (non-fastidious bacteria growing on nutrient agar) [2, 12]: 6.10 cfu log10 | NA [2, 13]: 7.23 cfu log10 | a = the rapidly degradable fraction [3]: 23.64^c | b = the slowly degradable fraction [3]: 51.69^a | c = the rate at which b is degraded [3]: 0.04^c /h | lag = lag time [3]: 1.70^c h | MOLD (molds; [12]): 4.77 cfu log10 | MOLD (molds; [13]): 6.24 cfu log10 | Total bacteria (total bacteria; day 0): 6.34 log cfu/g DM | Total bacteria (total bacteria; day 90): 8.49^a log cfu/g DM | Total bacteria (total bacteria; day 180): 8.25^a log cfu/g DM | NDF disappearance kinetics: Lag [4]: 2.87^ab h | NDF disappearance kinetics: c (fractional rate of disappearance of fraction b) [4]: 0.069 h⁻¹ | YEAST (yeasts [5]; [12]): 5.38 cfu log10 | YEAST (yeasts [5]; [13]): 4.67^b cfu log10 | average interior bale temperature (in words) ([6]; 60 day period post baling, FIG. 2): highest mean temperature over time | time spent above 40° C. (in words) ([6]; storage 2012, FIG. 3): longest time above 40 °C | DM disappearance kinetics: c (fractional rate of disappearance of fraction b) [7]: 0.083^c h^−1 | DM disappearance kinetics: c (fractional rate of disappearance of fraction b) ([7]; listed as propionic acid): 0.083 h⁻¹ | hay quality by visual and sensory assessment (in words) ([8]; bales opened on day 180): poorest quality | COLOR score, Mean [8, 14]: 8.8 points | ODOR score, Mean [8, 14]: 6.8 points | OVERALL score, Mean [8, 14]: 15.6 | GRADE (overall evaluation by examiner) ([8]; single bales (Bale # 1-5), stored for 180 days): P and VP | LAB (bacteria growing on MRS presumed to be Lactobacilli) [9, 12]: 4.88^c cfu log10 | MRS [9, 13]: 6.28 cfu log10 | YEAST count (yeasts [10]; [11]): 5.49 | YEAST count (yeasts [10]; day 90): 6.22 | YEAST count (yeasts [10]; day 180): 4.89
